Key:
[1] = test system: CCI-induced mechanical allodynia; assay: Chronic constriction injury (CCI) model of neuropathic pain (Bennett model); type: in vivo, Sprague-Dawley rats; conditions: rat CCI, about 30 mg/kg i.p., 30 minutes or more before testing
Text: (§1) Adult male Sprague-Dawley rats (250-300 g body weight, Charles River Laboratories, Portage, Mich.) were used. Animal handling and experimental protocols were approved by the Institutional Animal Care and Use Committee (IACUC) at Abbott Laboratories. For all surgical procedures, animals were maintained under isoflurane anesthesia (4-5% to induce, 1-3% to maintain), and the incision sites were sterilized using a 10% povidone-iodine solution prior to and after surgeries.
(§2) Tactile (mechanical) allodynia was measured using calibrated von Frey filaments (Stoelting, Wood Dale, Ill.) as described in Chaplan, S. R., F. W. Bach, J. M. Pogrel, J. M. Chung and T. L. Yaksh, 1994, Quantitative assessment of tactile allodynia in the rat paw, J. Neurosci. Methods, 53, 55. Rats were placed into inverted individual plastic containers (20×12.5×20 cm) on top of a suspended wire mesh grid, and acclimated to the test chambers for 20 minutes. The von Frey filaments were presented perpendicularly to the plantar surface of the selected hind paw, and then held in this position for approximately 8 seconds with enough force to cause a slight bend in the filament. Positive responses include an abrupt withdrawal of the hind paw from the stimulus, or flinching behavior immediately following removal of the stimulus.
A model of chronic constriction injury-induced (CCI) neuropathic pain was produced by following the method of Bennett and Xie (1988, Pain, 33, 87-107). The right common sciatic nerve was isolated at mid-thigh level, and loosely ligated by 4 chromic gut (5-0) ties separated by an interval of 1 mm. Sham rats can underwent the same procedure, but without sciatic nerve constriction. All animals can be left to recover for at least 2 weeks and no more than 5 weeks prior to testing of mechanical allodynia. Compounds were injected (i.p.) 30 minutes or more before testing.

[2] = test system: Capsaicin-induced secondary mechanical hyperalgesia / tactile allodynia; assay: Capsaicin-induced secondary mechanical hypersensitivity; type: in vivo, Sprague-Dawley rats; conditions: rat, about 30 mg/kg i.p., 30 minutes before testing, von Frey
Text: as §1
Rats were allowed to acclimate to the study room for 1 hour. They were then briefly restrained, and capsaicin was administered at 10 μg in 10 μL of vehicle (10% ethanol and 2-hydroxypropyl cyclodextrin) by intraplantar injection into the center of the right hind paw. Secondary mechanical hyperalgesia was measured at the heel away from the site of injection at 180 minutes following capsaicin (Joshi et al., 2006, Neuroscience 143, 587-596). Compounds were injected (i.p.) 30 minutes before testing (150 minutes post-capsaicin).
Tactile (mechanical) allodynia was measured using calibrated von Frey filaments (Stoelting, Wood Dale, Ill.) as described in Chaplan, S. R., F. W. Bach, J. M. Pogrel, J. M. Chung and T. L. Yaksh, 1994, Quantitative assessment of tactile allodynia in the rat paw, J. Neurosci. Methods, 53, 55. […]
Tactile allodynia was measured as described above.

[3] = test system: SNL-induced tactile allodynia; assay: Spinal nerve ligation (SNL) model of neuropathic pain; type: in vivo, Sprague-Dawley rats; conditions: rat SNL, about 30 mg/kg i.p., 30 minutes or more before testing
Text: as §1
as §2, with “stimulus. […]” for “stimulus.”

[4] = target: T1, KCNQ 2/3 channels (HEK293 cells stably expressing human KCNQ2 and KCNQ3 subunits) (Homo sapiens, UniProt O43525+O43526); assay: KCNQ2/3 channel activation, thallium flux FLIPR assay (BTC-AM dye); type: cell-based; conditions: for Emax: HEK293, maximum response relative to response of retigabine at 10 μM (set at 100%), read-out: Max. %; for EC50: HEK293 cells expressing human KCNQ2 and KCNQ3, FLIPR thallium flux
T1 construct: expressed in transfected cells; host or cells: HEK293
Procedure, shortened: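 HEK293 cells stably expressing human KCNQ2/KCNQ3 were loaded with BTC-AM and exposed to compound for 4 min in pH 7.3 gluconate buffer with ouabain. Thallium flux was triggered with 6 mM TlNO3 and 10 mM K2SO4 (stock additions) and fluorescence (ex 488, em 540 nm) recorded for 3 min. EC50 came from responses over baseline; maximal response is relative to 10 μM retigabine (100%).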

Structure (SMILES)	change in paw withdrawal latency versus vehicle [1]	change in paw withdrawal latency versus vehicle [2]	change in paw withdrawal latency versus vehicle [3]	Emax [4]	EC50 [4]
CC(C)(C)CC(=O)Nc1nn2cccnc2c1-c1ccc(OC(F)(F)F)cc1 [Example 1, 3,3-dimethyl-N-(3-(4-(trifluoromethoxy)phenyl)pyrazolo[1,5-a]pyrimidin-2-yl)butanamide]	statistically significant change	statistically significant change	–	–	–
O=C(CCC1CCCC1)Nc1nn2cccnc2c1-c1ccc(Cl)cc1 [Example 7, N-[3-(4-chlorophenyl)pyrazolo[1,5-a]pyrimidin-2-yl]-3-cyclopentylpropanamide]	–	–	statistically significant change	150%	100 to 500 nM
Cc1ccnc2c(-c3ccc(OC(F)(F)F)cc3)c(NC(=O)Cc3ccc(F)cc3)nn12 [Example 9, 2-(4-fluorophenyl)-N-{7-methyl-3-[4-(trifluoromethoxy)phenyl]pyrazolo[1,5-a]pyrimidin-2-yl}acetamide]	statistically significant change	–	statistically significant change	119%	500 to 1000 nM

Reference: patent US8609669B2, “Potassium channel modulators” (AbbVie Inc., priority 2010, dated 2013)
